Results as given in PubChem BioAssay AID248 (DTP/NCI, 2004).
Several values for one entry are separate records, joined by “and”; a condition that tells them apart may be missing. Equal entries are not always repeated. Toxic doses and inconclusive results are not listed. No stated cut-off is given here; in the data, active means T/C of 150% or more; inactive means T/C below 125%.

System: L1210 leukemia ip in BDF1 mice, survival T/C
Assay: NCI In Vivo Anticancer Drug Screen. Data for tumor model L1210 Leukemia (intraperitoneal) in B6D2F1 (BDF1) mice
Details: endpoint: mean survival time, higher = longer survival
Summary of the method: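 Each compound was tested against a transplantable tumor grown in mice. The endpoint was survival, with treated animals benchmarked against vehicle controls as a simple ratio.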

[1] = dose: 100.0 mg/kg/injection, schedule: Q01DX001 (ip), vehicle: carboxymethylcellulose (CMC)
[2] = dose: 400.0 mg/kg/injection, schedule: Q01DX001 (ip), vehicle: carboxymethylcellulose (CMC)
[3] = dose: 100.0 mg/kg/injection, schedule: Q01DX001 (ip), vehicle: saline
[4] = dose: 200.0 mg/kg/injection, schedule: Q01DX001 (ip), vehicle: saline
[5] = dose: 400.0 mg/kg/injection, schedule: Q01DX001 (ip), vehicle: saline
[6] = dose: 100.0 mg/kg/injection, schedule: Q01DX009 (ip), vehicle: saline
[7] = dose: 100.0 mg/kg/injection, schedule: Q01DX009 (ip), vehicle: Klucel (hydroxypropylcellulose) (HPC)
[8] = dose: 200.0 mg/kg/injection, schedule: Q01DX009 (ip), vehicle: Klucel (hydroxypropylcellulose) (HPC)
[9] = dose: 400.0 mg/kg/injection, schedule: Q01DX009 (ip), vehicle: Klucel (hydroxypropylcellulose) (HPC)
[10] = dose: 100.0 mg/kg/injection, schedule: Q01DX009 (ip), vehicle: saline with Tween-80
[11] = dose: 200.0 mg/kg/injection, schedule: Q01DX009 (ip), vehicle: saline with Tween-80
[12] = dose: 200.0 mg/kg/injection, schedule: Q01DX001 (ip), vehicle: carboxymethylcellulose (CMC)
[13] = dose: 50.0 mg/kg/injection, schedule: Q01DX009 (ip), vehicle: saline with Tween-80
[14] = dose: 100.0 mg/kg/injection, schedule: Q04DX003 (ip), vehicle: Klucel (hydroxypropylcellulose) (HPC)
[15] = dose: 200.0 mg/kg/injection, schedule: Q04DX003 (ip), vehicle: Klucel (hydroxypropylcellulose) (HPC)
[16] = dose: 400.0 mg/kg/injection, schedule: Q04DX003 (ip), vehicle: Klucel (hydroxypropylcellulose) (HPC)
[17] = dose: 100.0 mg/kg/injection, schedule: Q04DX003 (ip), vehicle: saline with Tween-80
[18] = dose: 100.0 mg/kg/injection, schedule: Q04DX003 (ip), vehicle: saline
[19] = dose: 200.0 mg/kg/injection, schedule: Q04DX003 (ip), vehicle: saline with Tween-80
[20] = dose: 200.0 mg/kg/injection, schedule: Q04DX003 (ip), vehicle: saline
[21] = dose: 400.0 mg/kg/injection, schedule: Q04DX003 (ip), vehicle: saline with Tween-80
[22] = dose: 400.0 mg/kg/injection, schedule: Q04DX003 (ip), vehicle: saline
[23] = dose: 25.0 mg/kg/injection, schedule: Q01DX009 (ip), vehicle: saline

Measured: T/C

C1=C(COC(c2ccccc2)(c2ccccc2)c2ccccc2)CCCC1
inactive: [1] 87 % of control | [2] 87 % of control

COc1cccc(Oc2c(O)c3ccc(OC)cc3oc2=O)c1
inactive: [3] 100 % of control | [4] 97 % of control | [5] 97 % of control

COC(=O)C(C)C1(O)CCCCC1 (stereo not drawn)
inactive: [6] 96 % of control | dose: 200.0 mg/kg/injection, schedule: Q01DX009 (ip), vehicle: saline 93 % of control | dose: 400.0 mg/kg/injection, schedule: Q01DX009 (ip), vehicle: saline 91 % of control

COc1cccc(NC(=S)NNC(=S)NNc2ccccc2)c1
inactive: [7] 108 % of control | [8] 100 % of control | [9] 100 % of control

Cc1cc(Cl)c(Cl)cc1NC(=O)Nc1cccc(F)c1
inactive: [10] 94 % of control | [11] 100 % of control | dose: 400.0 mg/kg/injection, schedule: Q01DX009 (ip), vehicle: saline with Tween-80 94 % of control

Cc1nnc2c3ccccc3c(-c3ccccc3)nn12
inactive: [1] 104 % of control | [12] 106 % of control

O=C(Nc1ccc(S(=O)(=O)F)cc1)/C(=C/c1ccc([N+](=O)[O-])cc1)c1ccccc1
inactive: dose: 12.5 mg/kg/injection, schedule: Q01DX009 (ip), vehicle: saline with Tween-80 102 % of control | dose: 25.0 mg/kg/injection, schedule: Q01DX009 (ip), vehicle: saline with Tween-80 109 % of control | [13] 98 % of control

CCCCCCCCCCCC(=O)NC(=S)Nc1ccc([N+](=O)[O-])cc1OC
inactive: [14] 96 % of control | [15] 92 % of control | [16] 102 % of control

CCOc1ccc(NC(=O)Nc2ccccc2OC)cc1
inactive: [7] 97 % of control | [14] 94 % of control | [8] 95 % of control | [15] 92 % of control | [9] 101 % of control | [16] 97 % of control

C1=CC(=P(c2ccccc2)(c2ccccc2)c2ccccc2)C=C1
inactive: dose: 30.0 mg/kg/injection, schedule: Q01DX015 (ip), vehicle: saline 95 % of control | dose: 50.0 mg/kg/injection, schedule: Q01DX001 (ip), vehicle: saline 92 % of control | dose: 60.0 mg/kg/injection, schedule: Q01DX015 (ip), vehicle: saline 89 % of control | [3] 97 % of control | dose: 120.0 mg/kg/injection, schedule: Q01DX015 (ip), vehicle: saline 91 % of control | [4] 98 % of control | dose: 240.0 mg/kg/injection, schedule: Q01DX015 (ip), vehicle: saline 91 % of control | [5] 97 % of control

CCOc1ccc(NC(=O)COc2ccc(Cl)cc2)cc1
inactive: [7] 88 % of control | [14] 93 % of control | [8] 92 % of control | [15] 101 % of control | [9] 87 % of control | [16] 101 % of control

CSCCC(NC(=O)c1ccccc1)C(N)=O (stereo not drawn)
inactive: [10] 90 % of control | [11] 89 % of control

CC(=O)N(C)c1ccc(NC(=O)Nc2ccccc2C(F)(F)F)cc1
inactive: [7] 95 % of control | [8] 93 % of control | [9] 103 % of control

O=C1OC2CC3CC2C1C3C(=O)N1CCCCC1 (stereo not drawn)
inactive: [17] 115 % of control | [18] 98 % of control | [19] 100 % of control | [20] 96 % of control | [21] 100 % of control | [22] 96 % of control

CC(=O)Nc1ccc(/C=N\NC(=O)N/N=C/c2ccc(NC(C)=O)cc2)cc1
inactive: dose: 50.0 mg/kg/injection, schedule: Q04DX003 (ip), vehicle: Klucel (hydroxypropylcellulose) (HPC) 90 % of control | [14] 91 % of control

CCCCCc1c(C)nc([N+](=O)[O-])nc1N
inactive: dose: 3.13 mg/kg/injection, schedule: Q01DX001 (ip), vehicle: saline with Tween-80 97 % of control | dose: 6.25 mg/kg/injection, schedule: Q01DX001 (ip), vehicle: saline with Tween-80 101 % of control | dose: 12.5 mg/kg/injection, schedule: Q01DX001 (ip), vehicle: saline with Tween-80 96 % of control

NC(=O)N1CCCC1
inactive: [3] 98 % of control | [4] 95 % of control | [5] 95 % of control

Brc1ccccc1-c1ccccc1-c1ccccc1
inactive: [17] 92 % of control | [19] 100 % of control | [21] 92 % of control

CN(C)CCC1CCCCN1 (stereo not drawn)
inactive: [23] 95 % of control | dose: 25.0 mg/kg/injection, schedule: Q04DX003 (ip), vehicle: saline 103 % of control | dose: 50.0 mg/kg/injection, schedule: Q01DX009 (ip), vehicle: saline 95 % of control | dose: 50.0 mg/kg/injection, schedule: Q04DX003 (ip), vehicle: saline 101 % of control | [6] 104 % of control | [18] 99 % of control and 100 % of control

CC(=O)Nc1ccc(Cc2ccc(Cl)cc2)cc1
inactive: [3] 95 % of control | [4] 98 % of control

O=C(COc1ccc(Cl)cc1)Nc1cccc2ccccc12
inactive: dose: 100.0 mg/kg/injection, schedule: Q04DX002 (ip), vehicle: Klucel (hydroxypropylcellulose) (HPC) 87 % of control | dose: 200.0 mg/kg/injection, schedule: Q04DX002 (ip), vehicle: Klucel (hydroxypropylcellulose) (HPC) 93 % of control | dose: 400.0 mg/kg/injection, schedule: Q04DX002 (ip), vehicle: Klucel (hydroxypropylcellulose) (HPC) 101 % of control

O=C(CNC(=O)NCc1ccccc1)N/N=C/c1ccccc1O
inactive: [13] 89 % of control | [10] 103 % of control | [11] 97 % of control

CCN(CC)CC(=O)NCC(CCN1CCOCC1)c1cccc2ccccc12 (stereo not drawn)
inactive: [18] 96 % of control | [20] 100 % of control | [22] 93 % of control

COc1ccccc1CN1CCCN(Cc2ccccc2OC)C1c1cc(I)cc(I)c1O
inactive: [1] 98 % of control | [12] 98 % of control | [2] 93 % of control

O=C(C(F)(F)F)C(F)(F)F
inactive: dose: 6.25 mg/kg/injection, schedule: Q01DX009 (ip), vehicle: saline 95 % of control | dose: 12.5 mg/kg/injection, schedule: Q01DX009 (ip), vehicle: saline 98 % of control | [23] 114 % of control | [6] 88 % of control
